Results on 26 compounds are retold here after PubChem BioAssay AID720714 (Broad Institute, 2013).

Active and inactive are the calls of the source. How the calls were made is not given here.

What is called AC50 is the concentration giving half of the maximal activity seen.

For one assay, the system named is HepG2 cytotoxicity, plate reader. The assay is described as follows: HepG2 cell cytotoxicity, dose response, cytotoxicity control, plate reader, dry powder, set 3 (AID 720714).
Details: not given
For `CC(C)(C)NC(=O)CSc1nc2ccc(NC(=O)CSc3nnnn3Cc3ccccc3)cc2s1`, the concentration at half-maximal activity (AC50) is 15.5 µM.

In the case of `COc1cc(CN2CCc3ccccc3C2)ccc1O`, the half-maximal activity concentration (AC50) is 21.6 µM. Still for that read-out and setting: then `CN(C)c1nc(-c2ccccn2)nnc1-c1ccccc1`, with 26.5 µM; and `O=C(c1nnsc1S(=O)c1ccc(Cl)cc1)N1CCOCC1` (stereo unspecified), with 14.5 µM.

Tested on in another assay: not listed separately
The description is as above. As to conditions: HepG2 cytotoxicity, plate reader; at 26 µM (top of the series).
With `CN(C(=O)COc1ccccc1C(=O)NCCOc1ccccc1)c1ccccc1`, the activity change, negative = cytotoxicity was -26.1% (inactive). In the case of `COc1ccc(NC(=O)c2nc(S(=O)(=O)Cc3cccc(C)c3)ncc2Cl)c(OC)c1`, the activity change, negative = cytotoxicity was -19.7% (inactive). Same read-out and setting: then `CCOC(=O)C1CCN(C(=O)c2ccc(OCC(=O)Nc3cccc(C(F)(F)F)c3)c(OC)c2)CC1`, with 11.7% (inactive); and `CC(C)[C@H](NC(=O)OC(C)(C)C)c1nnc(S(=O)(=O)Cc2c(F)cccc2Cl)o1`, with -90.6% (inactive).

Turning to `CN(C)S(=O)(=O)c1cccc(NC(=O)c2cccc(S(=O)(=O)N3CCc4ccccc43)c2)c1`, the activity change, negative = cytotoxicity is 10.3% (inactive).

`COc1cc2ncnc(N[C@H](C)c3ccccc3)c2cc1OC`: the activity change, negative = cytotoxicity was 45.6% (inactive). As for `CC(=O)Nc1cccc(NC(=O)CSc2ncc(-c3ccc(Cl)cc3)n2Cc2ccco2)c1`, the activity change, negative = cytotoxicity was -23% (inactive). The same measure, in the same setting: then `CN(CC(=O)Nc1cccc(S(=O)(=O)N2CCOCC2)c1)CC(=O)Nc1ccc(Cl)c(C(F)(F)F)c1`, with -15.1% (inactive); and `CCCc1nnc(NC(=O)c2nc(S(=O)(=O)Cc3ccc(C)cc3)ncc2Cl)s1`, with 26.2% (inactive); and `Cc1cc2c(cc(C(=O)N3CCC(C(=O)NC4CCCC4)CC3)n2Cc2c(F)cccc2Cl)o1`, with 132% (inactive). On the same count and under the same terms, in the case of `O=C1CSc2ccc(C(=O)Nc3cccc(S(=O)(=O)Nc4ccc(Br)cc4)c3)cc2N1` it was -35.1% (inactive); in that of `O=c1c2ccccc2nc2n1C(CSCc1ccc(Cl)cc1Cl)CS2` (stereo unspecified), -17.2% (inactive). Same read-out and setting: then `Cc1cc(N2CCCC2=O)cc(C)c1S(=O)(=O)NCCOc1ccc(C(C)(C)C)cc1`, with 15.4% (inactive); and `Cc1ccc2cc(CN(CC3CCCO3)C(=O)NC3CCCCC3)c(=O)[nH]c2c1C` (stereo unspecified), with 64.3% (inactive); and `COc1ccc2c(c1)c(CC(=O)Nc1cc(C)ccc1C)c(C)n2C(=O)c1ccc(Cl)cc1`, with 8.4% (inactive).

For `Fc1ccc(-n2nnnc2-c2cnc(-c3cccs3)nc2C(F)(F)F)cc1`, the activity change, negative = cytotoxicity is 23.6% (inactive).

In the case of `COc1ccccc1N1CCN(c2ncc(C(=O)N3CCN(c4cccc(Cl)c4)CC3)c3ccccc23)CC1`, the activity change, negative = cytotoxicity was 111% (inactive). Same read-out and setting: in the case of `CCCOc1ccccc1C1CC(=O)Nc2cc3c(cc21)OCO3` (stereo unspecified) it was 73.2% (inactive). Same read-out and setting: in the case of `CC(=O)N1CCN(C(=O)CCc2cc(C(C)(C)C)c(O)c(C(C)(C)C)c2)CC1` it was 84.8% (inactive); in that of `Nc1nonc1C(=O)NCCNCc1cc(Br)ccc1OCc1ccc(F)cc1`, -54.9% (inactive). Still for that read-out and setting: then `COc1ccc(NS(=O)(=O)c2ccc(C(=O)N3CCCCCC3)cc2)cc1`, with 41.5% (inactive). Consider `COc1ccc(Nc2nc(N3CCCCC3)c3ccccc3n2)cc1`, for which the activity change, negative = cytotoxicity was -24.8% (inactive).
